We go through one molecule from paper PMC11788862 (Journal of Pharmaceutical Analysis, 2024).

One test deals with NLRP3 (Mus musculus, UniProt Q8R4B8). The experiment in a line: DARTS. The test is classed as cell-based.
The target of test [1] is NOD-like receptor protein 3 (NLRP3) (Homo sapiens, UniProt Q96P20). Description: SPR. In kind it is binding.
Sequence of NOD-like receptor protein 3 (NLRP3) (Q96P20 220-536 limits assumed): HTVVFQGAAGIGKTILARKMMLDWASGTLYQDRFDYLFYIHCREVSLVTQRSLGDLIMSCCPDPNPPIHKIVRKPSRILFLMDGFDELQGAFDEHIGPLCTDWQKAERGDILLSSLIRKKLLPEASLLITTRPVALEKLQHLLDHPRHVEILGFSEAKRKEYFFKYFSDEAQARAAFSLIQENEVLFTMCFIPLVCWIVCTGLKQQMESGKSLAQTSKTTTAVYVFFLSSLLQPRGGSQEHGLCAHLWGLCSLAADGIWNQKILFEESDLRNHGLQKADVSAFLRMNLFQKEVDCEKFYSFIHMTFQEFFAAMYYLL

Sequence of NLRP3 (Q8R4B8 whole entry): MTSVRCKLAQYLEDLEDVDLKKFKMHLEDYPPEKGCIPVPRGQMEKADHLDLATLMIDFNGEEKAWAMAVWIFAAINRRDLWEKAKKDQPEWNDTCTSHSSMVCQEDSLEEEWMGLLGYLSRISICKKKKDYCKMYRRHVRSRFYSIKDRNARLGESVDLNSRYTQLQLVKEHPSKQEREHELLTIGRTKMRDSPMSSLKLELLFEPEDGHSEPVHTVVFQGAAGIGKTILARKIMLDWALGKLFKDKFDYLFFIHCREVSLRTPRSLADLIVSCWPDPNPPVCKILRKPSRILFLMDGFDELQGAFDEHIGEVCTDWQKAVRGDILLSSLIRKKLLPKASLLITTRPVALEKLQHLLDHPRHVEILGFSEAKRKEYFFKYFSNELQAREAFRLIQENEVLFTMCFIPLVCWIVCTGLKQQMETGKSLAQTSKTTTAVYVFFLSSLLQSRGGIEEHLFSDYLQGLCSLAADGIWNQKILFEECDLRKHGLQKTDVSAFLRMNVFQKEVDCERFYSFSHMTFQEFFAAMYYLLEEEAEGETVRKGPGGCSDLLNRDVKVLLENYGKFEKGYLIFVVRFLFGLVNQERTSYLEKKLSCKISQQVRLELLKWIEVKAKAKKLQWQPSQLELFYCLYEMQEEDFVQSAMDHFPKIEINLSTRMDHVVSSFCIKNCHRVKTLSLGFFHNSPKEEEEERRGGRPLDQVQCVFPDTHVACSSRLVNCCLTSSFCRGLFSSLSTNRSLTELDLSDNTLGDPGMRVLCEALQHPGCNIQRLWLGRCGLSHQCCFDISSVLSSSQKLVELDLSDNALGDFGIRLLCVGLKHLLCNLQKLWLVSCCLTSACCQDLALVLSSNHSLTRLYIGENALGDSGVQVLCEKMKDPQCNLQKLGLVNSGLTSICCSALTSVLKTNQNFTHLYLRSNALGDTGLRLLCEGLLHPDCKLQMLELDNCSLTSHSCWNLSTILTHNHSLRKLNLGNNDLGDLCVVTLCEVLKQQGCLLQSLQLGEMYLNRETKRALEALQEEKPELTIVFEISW

Turning to `Oc1c(I)cc(Cl)c2cccnc12` [CQ, 5-chloro-7-iodo-8-hydroxyquinoline], the “DARTS (BMDM lysates, CQ 15 μM) and CETSA (BMDMs)” value on NLRP3 was “pre-incubation of CQ with BMDM cell lysates attenuated pronase-induced proteolysis of NLRP3”. Further, in test [1], the Kd stood at 9.93 µM.
